# Assay results from patent publication US20010039027A1, “Cyclitol containing carbohydrates from human tissue which regulate lipogenic activity” (priority 1996, published 2001).
# Tested on: rat adipocytes
# Experiment: Activation of lipogenesis in rat adipocytes
# Type: cell-based
# Details: insulin 1 nM; twenty independent lipogenesis assays
# Description: This was carried out on adipocytes isolated from the epididymal fat pads of young rats. Briefly adipocytes from two rat epididymial fat pads were suspended in 8 ml of Krebs Ringer bicarbonate and 250 μL of the cell suspension was incubated at 37° C. for two hours in Krebs Ringer bicarbonate, containing 1% albumin and 5 mM [U-^14C]-glucose (1 μCi/sample) with or without insulin (1 nM) or 10 μL of IPG solutions. The rate of incorporation of uniformly labelled glucose into fatty acids was used as a measure of lipogenesis.
substance,measurement,value
Insulin,Lipogenesis (lipogenic activity),5160 ± 310 (n-20) milliunits/g liver
